Test results: PubChem BioAssay (NCI)
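48-hour exposure; five concentrations; linearly interpolated endpoints. GI50 is the concentration that inhibits growth by half. At the TGI there is no net growth.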

Columns and labels:
Assay in all cases: inhibition of tumour cell growth, NCI panel, 48 h
DU-145 prostate = test system: DU-145 prostate
HT29 colon = test system: HT29 colon
HCC-2998 colon = test system: HCC-2998 colon
HOP-62 NSCLC = test system: HOP-62 NSCLC
SK-OV-3 ovarian = test system: SK-OV-3 ovarian
A549 NSCLC = test system: A549 NSCLC
SF-268 CNS = test system: SF-268 CNS
786-0 renal = test system: 786-0 renal
SK-MEL-2 melanoma = test system: SK-MEL-2 melanoma
MDA-MB-231 breast = test system: MDA-MB-231 breast
NCI/ADR-RES ovarian = test system: NCI/ADR-RES ovarian
MDA-MB-468 breast = test system: MDA-MB-468 breast
SK-MEL-5 melanoma = test system: SK-MEL-5 melanoma
K-562 leukemia = test system: K-562 leukemia
T-47D breast = test system: T-47D breast
SN12C renal = test system: SN12C renal
SW-620 colon = test system: SW-620 colon
NCI-H460 lung = test system: NCI-H460 lung
OVCAR-5 ovarian = test system: OVCAR-5 ovarian
KM12 colon = test system: KM12 colon
ACHN renal = test system: ACHN renal
NCI-H522 lung = test system: NCI-H522 lung
SF-539 CNS = test system: SF-539 CNS
A498 renal = test system: A498 renal
PC-3 prostate = test system: PC-3 prostate
SK-MEL-28 melanoma = test system: SK-MEL-28 melanoma
HCT-116 colon = test system: HCT-116 colon
MCF7 breast = test system: MCF7 breast
UACC-257 melanoma = test system: UACC-257 melanoma
SNB-75 CNS = test system: SNB-75 CNS
TK-10 renal = test system: TK-10 renal
HL-60(TB) leukemia = test system: HL-60(TB) leukemia
RPMI-8226 leukemia = test system: RPMI-8226 leukemia
SR leukemia = test system: SR leukemia
CCRF-CEM leukemia = test system: CCRF-CEM leukemia
HOP-92 NSCLC = test system: HOP-92 NSCLC
SF-295 CNS = test system: SF-295 CNS
NCI-H23 lung = test system: NCI-H23 lung
EKVX NSCLC = test system: EKVX NSCLC
OVCAR-4 ovarian = test system: OVCAR-4 ovarian
HCT-15 colon = test system: HCT-15 colon
LOX IMVI melanoma = test system: LOX IMVI melanoma
MDA-MB-435 = test system: MDA-MB-435
BT-549 breast = test system: BT-549 breast
U251 CNS = test system: U251 CNS
M14 melanoma = test system: M14 melanoma
MOLT-4 leukemia = test system: MOLT-4 leukemia
HS 578T breast = test system: HS 578T breast
MALME-3M melanoma = test system: MALME-3M melanoma
UO-31 renal = test system: UO-31 renal
UACC-62 melanoma = test system: UACC-62 melanoma
CAKI-1 renal = test system: CAKI-1 renal
OVCAR-8 ovarian = test system: OVCAR-8 ovarian
RXF 393 renal = test system: RXF 393 renal
NCI-H226 lung = test system: NCI-H226 lung
IGROV1 ovarian = test system: IGROV1 ovarian
COLO 205 colon = test system: COLO 205 colon
SNB-19 CNS = test system: SNB-19 CNS
OVCAR-3 ovarian = test system: OVCAR-3 ovarian

Work on `CN(C)CCNC(=O)OCCCCOc1cc(O)c2c(=O)cc(-c3ccccc3)oc2c1` yielded a GI50 (DU-145 prostate) of 3.73 µM, a TGI (DU-145 prostate) of 13.9 µM and a GI50 (HT29 colon) of 1.88 µM. The TGI (HT29 colon) was 3.98 µM, the GI50 (HCC-2998 colon) was 3.25 µM and the TGI (HCC-2998 colon) was 10.3 µM. It also gave a GI50 (HOP-62 NSCLC) of 10.4 µM, a TGI (HOP-62 NSCLC) of 24.4 µM and a GI50 (SK-OV-3 ovarian) of 11.3 µM. The TGI (SK-OV-3 ovarian) was 23.7 µM, the GI50 (A549 NSCLC) was 5.26 µM and the TGI (A549 NSCLC) was 19.3 µM. For the same molecule, the GI50 (SF-268 CNS) was 3.51 µM, the TGI (SF-268 CNS) was 16.2 µM and the GI50 (786-0 renal) was 2 µM. It also gave a TGI (786-0 renal) of 4.72 µM, a GI50 (SK-MEL-2 melanoma) of 2.88 µM and a TGI (SK-MEL-2 melanoma) of 9.08 µM. For the same molecule, the GI50 (MDA-MB-231 breast) was 1.74 µM, the TGI (MDA-MB-231 breast) was 3.78 µM and the GI50 (NCI/ADR-RES ovarian) was 7.37 µM. The TGI (NCI/ADR-RES ovarian) was 34.2 µM, the GI50 (MDA-MB-468 breast) was 1.78 µM and the TGI (MDA-MB-468 breast) was 4.16 µM. For the same molecule, the GI50 (SK-MEL-5 melanoma) was 1.65 µM, the TGI (SK-MEL-5 melanoma) was 3.03 µM and the GI50 (K-562 leukemia) was 1.96 µM. It also gave a TGI (K-562 leukemia) of 5.98 µM, a GI50 (T-47D breast) of 1.88 µM and a TGI (T-47D breast) of 4.23 µM. The GI50 (SN12C renal) was 13.8 µM, the TGI (SN12C renal) was 27.4 µM and the GI50 (SW-620 colon) was 2.03 µM. For the same molecule, the TGI (SW-620 colon) was 4.49 µM, the GI50 (NCI-H460 lung) was 3.01 µM and the TGI (NCI-H460 lung) was 10.1 µM. The GI50 (OVCAR-5 ovarian) was 11.8 µM, the TGI (OVCAR-5 ovarian) was 24.2 µM and the GI50 (KM12 colon) was 6.09 µM. It also gave a TGI (KM12 colon) of 20.4 µM, a GI50 (ACHN renal) of 1.92 µM and a TGI (ACHN renal) of 3.97 µM. It also gave a GI50 (NCI-H522 lung) of 3.68 µM, a TGI (NCI-H522 lung) of 16 µM and a GI50 (SF-539 CNS) of 1.53 µM. The TGI (SF-539 CNS) was 2.93 µM, the GI50 (A498 renal) was 2.21 µM and the TGI (A498 renal) was 5.77 µM. For the same molecule, the GI50 (PC-3 prostate) was 4.35 µM, the TGI (PC-3 prostate) was 17.9 µM and the GI50 (SK-MEL-28 melanoma) was 1.62 µM. For the same molecule, the TGI (SK-MEL-28 melanoma) was 3.1 µM, the GI50 (HCT-116 colon) was 2.01 µM and the TGI (HCT-116 colon) was 4.85 µM. For the same molecule, the GI50 (MCF7 breast) was 1.59 µM, the TGI (MCF7 breast) was 3.76 µM and the GI50 (UACC-257 melanoma) was 1.89 µM. It also gave a TGI (UACC-257 melanoma) of 3.61 µM, a GI50 (SNB-75 CNS) of 11 µM and a TGI (SNB-75 CNS) of 24 µM. For the same molecule, the GI50 (TK-10 renal) was 18.5 µM, the TGI (TK-10 renal) was 33.2 µM and the GI50 (HL-60(TB) leukemia) was 1.64 µM. It also gave a TGI (HL-60(TB) leukemia) of 3.59 µM, a GI50 (RPMI-8226 leukemia) of 2.97 µM and a TGI (RPMI-8226 leukemia) of 9.69 µM. The GI50 (SR leukemia) was 1.95 µM, the TGI (SR leukemia) was 4.16 µM and the GI50 (CCRF-CEM leukemia) was 3.21 µM. For the same molecule, the TGI (CCRF-CEM leukemia) was 10.7 µM, the GI50 (HOP-92 NSCLC) was 4.35 µM and the TGI (HOP-92 NSCLC) was 19.1 µM. For the same molecule, the GI50 (SF-295 CNS) was 2.14 µM, the TGI (SF-295 CNS) was 4.06 µM and the GI50 (NCI-H23 lung) was 7.23 µM. The TGI (NCI-H23 lung) was 20.4 µM, the GI50 (EKVX NSCLC) was 7.87 µM and the TGI (EKVX NSCLC) was 20.2 µM. For the same molecule, the GI50 (OVCAR-4 ovarian) was 10.1 µM, the TGI (OVCAR-4 ovarian) was 24.7 µM and the GI50 (HCT-15 colon) was 2.25 µM. For the same molecule, the TGI (HCT-15 colon) was 5.8 µM, the GI50 (LOX IMVI melanoma) was 1.79 µM and the TGI (LOX IMVI melanoma) was 3.25 µM. For the same molecule, the GI50 (MDA-MB-435) was 2.12 µM, the TGI (MDA-MB-435) was 4.66 µM and the GI50 (BT-549 breast) was 10.6 µM. The TGI (BT-549 breast) was 22.7 µM, the GI50 (U251 CNS) was 2.31 µM and the TGI (U251 CNS) was 6.74 µM. The GI50 (M14 melanoma) was 1.89 µM, the TGI (M14 melanoma) was 3.78 µM and the GI50 (MOLT-4 leukemia) was 2.25 µM. For the same molecule, the TGI (MOLT-4 leukemia) was 6.24 µM, the GI50 (HS 578T breast) was 4.35 µM and the TGI (HS 578T breast) was 23.4 µM. The GI50 (MALME-3M melanoma) was 1.57 µM, the TGI (MALME-3M melanoma) was 2.97 µM and the GI50 (UO-31 renal) was 4.56 µM. The TGI (UO-31 renal) was 16.9 µM, the GI50 (UACC-62 melanoma) was 1.78 µM and the TGI (UACC-62 melanoma) was 3.43 µM. For the same molecule, the GI50 (CAKI-1 renal) was 3.04 µM, the TGI (CAKI-1 renal) was 12.2 µM and the GI50 (OVCAR-8 ovarian) was 10 µM. The TGI (OVCAR-8 ovarian) was 24.5 µM, the GI50 (RXF 393 renal) was 1.64 µM and the TGI (RXF 393 renal) was 3.35 µM. For the same molecule, the GI50 (NCI-H226 lung) was 10.1 µM, the TGI (NCI-H226 lung) was 28.8 µM and the GI50 (IGROV1 ovarian) was 15.7 µM. The TGI (IGROV1 ovarian) was 29.6 µM, the GI50 (COLO 205 colon) was 1.84 µM and the TGI (COLO 205 colon) was 3.5 µM. For the same molecule, the GI50 (SNB-19 CNS) was 6.09 µM, the TGI (SNB-19 CNS) was 20.3 µM and the GI50 (OVCAR-3 ovarian) was 4.42 µM. For the same molecule, the TGI (OVCAR-3 ovarian) was 16.3 µM.
